Laboratory results published in article PMC10771415, “Mechanism of anion exchange and small-molecule inhibition of pendrin” (Nature Communications, 2024).

Experiments:
[1] = target: T1, pendrin (ssPendrin, SLC26A4) (Sus scrofa, UniProt A0A480E679); test: cryo-EM structure at […] Å; inhibition of […]-HCO3- uptake in proteoliposomes of purified protein; type: biochemical
T1 construct: C-terminal TEV site and 8x His-tag
T1 sequence (A0A480E679 1-780): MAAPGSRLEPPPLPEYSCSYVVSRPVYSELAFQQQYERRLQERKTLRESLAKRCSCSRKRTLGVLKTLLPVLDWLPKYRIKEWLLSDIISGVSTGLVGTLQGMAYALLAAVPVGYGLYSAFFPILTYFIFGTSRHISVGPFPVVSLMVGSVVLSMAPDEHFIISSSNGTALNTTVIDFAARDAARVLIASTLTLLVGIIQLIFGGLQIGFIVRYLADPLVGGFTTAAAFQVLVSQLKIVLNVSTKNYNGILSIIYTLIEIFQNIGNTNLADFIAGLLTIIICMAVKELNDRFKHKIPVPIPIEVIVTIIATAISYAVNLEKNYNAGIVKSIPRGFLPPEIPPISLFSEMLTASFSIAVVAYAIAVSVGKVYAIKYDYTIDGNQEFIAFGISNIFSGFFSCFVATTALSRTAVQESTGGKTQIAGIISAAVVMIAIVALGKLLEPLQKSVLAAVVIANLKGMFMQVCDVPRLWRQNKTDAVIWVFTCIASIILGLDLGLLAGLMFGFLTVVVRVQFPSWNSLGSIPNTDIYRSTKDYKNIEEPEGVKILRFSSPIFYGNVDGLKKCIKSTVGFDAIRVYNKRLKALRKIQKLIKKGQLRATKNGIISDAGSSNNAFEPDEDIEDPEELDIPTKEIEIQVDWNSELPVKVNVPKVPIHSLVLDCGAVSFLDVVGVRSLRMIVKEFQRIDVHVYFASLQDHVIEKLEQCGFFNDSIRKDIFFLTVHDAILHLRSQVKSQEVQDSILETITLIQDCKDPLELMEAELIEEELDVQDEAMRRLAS

[2] = target: pendrin (ssPendrin, SLC26A4) (Sus scrofa, UniProt A0A480E679, Q101L/T224A); test: inhibition of […]-HCO3- uptake in proteoliposomes of purified mutant; type: biochemical
pendrin (ssPendrin, SLC26A4) (Sus scrofa, UniProt A0A480E679, Q101L/T224A), sequence (A0A480E679 entry or part of it Q101L/T224A): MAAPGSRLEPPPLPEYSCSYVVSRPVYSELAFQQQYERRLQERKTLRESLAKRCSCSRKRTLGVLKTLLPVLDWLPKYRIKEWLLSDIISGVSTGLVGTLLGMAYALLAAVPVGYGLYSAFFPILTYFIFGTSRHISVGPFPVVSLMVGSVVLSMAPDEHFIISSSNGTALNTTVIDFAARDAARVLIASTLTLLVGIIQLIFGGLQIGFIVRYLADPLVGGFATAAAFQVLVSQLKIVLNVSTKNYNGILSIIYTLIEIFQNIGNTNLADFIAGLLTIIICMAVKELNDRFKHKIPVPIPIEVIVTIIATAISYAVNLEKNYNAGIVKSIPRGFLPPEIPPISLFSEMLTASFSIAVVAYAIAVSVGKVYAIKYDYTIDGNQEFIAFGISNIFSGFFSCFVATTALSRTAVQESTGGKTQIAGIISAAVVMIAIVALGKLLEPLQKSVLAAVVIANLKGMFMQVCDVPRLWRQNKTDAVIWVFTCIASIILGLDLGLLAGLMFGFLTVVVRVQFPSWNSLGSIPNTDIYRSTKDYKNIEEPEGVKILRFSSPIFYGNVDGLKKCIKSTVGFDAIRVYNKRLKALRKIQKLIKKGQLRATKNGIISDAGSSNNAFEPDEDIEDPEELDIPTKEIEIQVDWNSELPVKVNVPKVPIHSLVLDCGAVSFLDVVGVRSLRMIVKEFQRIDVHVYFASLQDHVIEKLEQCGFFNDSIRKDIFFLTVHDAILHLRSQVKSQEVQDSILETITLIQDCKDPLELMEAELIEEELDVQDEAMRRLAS

[3] = target: pendrin (ssPendrin, SLC26A4) (Sus scrofa, UniProt A0A480E679, Q101L); test: as above; type: biochemical
pendrin (ssPendrin, SLC26A4) (Sus scrofa, UniProt A0A480E679, Q101L), sequence (A0A480E679 entry or part of it Q101L): as the sequence (A0A480E679 entry or part of it Q101L/T224A) above, with A224T counted along it

[4] = target: pendrin (ssPendrin, SLC26A4) (Sus scrofa, UniProt A0A480E679, T224V); test: as above; type: biochemical
pendrin (ssPendrin, SLC26A4) (Sus scrofa, UniProt A0A480E679, T224V), sequence (A0A480E679 entry or part of it T224V): as the sequence (A0A480E679 entry or part of it Q101L/T224A) above, with L101Q, A224V counted along it

[5] = target: pendrin from Sus scrofa (ssPendrin) (Sus scrofa); test: cryo-EM structure; purified ssPendrin in 20 mM HEPES pH 7.5, 2 mM BME, 0.02% GDN with 150 mM NaCl, NaI, NaHCO3 or Na gluconate, or 150 mM NaCl and 10 mM NFA; refined with C2 symmetry

| stoichiometry N [5] | Molecule | IC50 [1] | IC50 [2] | IC50 [3] | IC50 [4] |
| --- | --- | --- | --- | --- | --- |
| – | O=C(O)c1cccnc1Nc1cccc(C(F)(F)F)c1 [NFA, niflumic acid] | 15.5 ± 1.5 µM | 16.3 µM | 31.2 µM | 9.5 µM |
| 2 | pendrin from Sus scrofa (ssPendrin) (natural protein) | – | – | – | – |
